From patent US20140066842A1, “MICRONEEDLE DEVICES AND METHODS” (3M INNOVATIVE PROPERTIES COMPANY, priority 2011, published 2014)

How the values were obtained:
[1] = Discoloration of tissue in which local anesthetic/dose-extending component are administered; type: in vivo; details: dose-extending component administered with local anesthetic by the microneedle devices
[2] = In vivo delivery of lidocaine to swine skin tissue from coated microneedle array (biopsy, LC/MS/MS); details: dose-extending component delivered with lidocaine and/or prilocaine by microneedles
Experimental: The in vivo delivery of lidocaine to tissue using the coated microneedle array described above was determined using naïve young adult female mixed breed agricultural swine (Yorkshire X from Midwest Research Swine, Gibbon, Minn.). Swine with minimal skin pigmentation and weighing 10-40 kg were selected for the study. The animals were initially sedated with ketamine (10 mg/kg) and glycopyrrolate (0.011 mg/kg) was intramuscularly administered to reduce salivary, tracheobronchial, and pharyngeal secretions. Hair and dirt on pig skin at the intended application sites were removed prior to application of the microneedle array to minimize complications Skin test sites were selected based on lack of skin pigmentation and skin damage. The hair was first clipped using an electric shaver followed by shaving with a wet multi-blade disposable razor (Schick Xtreme3) and shaving cream (Gillette Foamy Regular) while the animal was under anesthesia.
A light surgical plane of anesthesia was achieved by administering 1.5-5% isoflurane in 1.5-4 L of oxygen by mask. Anesthetized animals were placed in lateral recumbency on insulated table pads. During the experiment, the animals were placed on a heated table to control body temperature at approximately 38° C. Animals were observed continuously until normal recovery was attained. […] The biopsy punch samples were stored at −20° C. until analyzed. […]
Protein precipitation was used to prepare the digested tissue samples for analysis by LC/MS/MS. […] The resulting sample was quantitatively analyzed using a Sciex API3000 triple quadrupole mass spectrometer (Applied Biosystems, Foster City, Calif.) running in positive ion mode using Turbo IonSpray interface to monitor the product ions resulting from the m/z transitions: 235→86.2 for lidocaine and 247→97.5 for mepivacaine. The linear range for lidocaine was 50.0 to 20,000 ng/mL evaluated using 1/x^2 curve weighting. […]

Extension of the local anesthetic dose (tissue levels compared with local anesthetic without the alpha adrenergic agonist) [2] | SMILES | Discoloration of the tissue [1]
extend the local anesthetic dose | Nc1cc(Cl)c(N=C2NCCN2)c(Cl)c1 [apraclonidine] | without any appreciable tissue discoloration
extend the local anesthetic dose | Clc1cccc(Cl)c1N=C1NCCN1 [clonidine] | without any appreciable tissue discoloration
– | CNC[C@H](O)c1ccc(O)c(O)c1 [epinephrine] | cause discoloration of the tissue, resulting in a blue or bruised appearance
extend the local anesthetic dose | N=C(N)NC(=O)Cc1c(Cl)cccc1Cl [guanfacine] | without any appreciable tissue discoloration
